From patent US20100221773A1, “Nucleic Acids Encoding a Functional Mammalin Purinoreceptor, P2X3, Methods of Production and Use Thereof” (priority 2005, published 2010)

Legend:
rhesus P2X3 receptor [1] = target: T1, rhesus P2X3 receptor (Macaca mulatta, UniProt A0A1D5QSM7); experiment: In vitro electrophysiological assay (whole-cell patch clamp, PatchXpress); format: cell-based; settings: for IC50: 100 μM CTP, antagonist preincubation 2 min, whole-cell patch clamp, read-out: IC50, inhibition of CTP-induced currents
Method: (§1) Generation of a Rhesus P2X3 Stable Cell Line—Rhesus P2X3 receptor cDNA was subcloned as a 5′HindIII and 3′XhoI fragment into the expression vector pcDNA5/FRT/TO (Invitrogen). Five micrograms of the rhesus P2X3 expression construct was transfected using Lipofectamine 2000 (Invitrogen) into Flp-in T-Rex—293 cells (Invitrogen) according to the manufacturer's directions. Cells positive for flp-mediated recombination of rhesus P2X3 were selected using 300 μg/ml hygromycin. The stable rhesus P2X3 cell line was propagated in DMEM, 10% FBS, 150 μg/ml hygromycin, 15 μg/ml blasticidin, and 100 units/ml penicillin and 100 μg/ml streptomycin, and maintained at 37° and 95% humidity. Cells were subcultured by treatment with 0.25% trypsin with 0.1% EDTA in HBSS.
In vitro Electrophysiological Assay—Cells expressing rhesus P2X3 receptor were grown to a confluence of 65-85% and induced with 1 μg/ml doxycycline 20 to 32 hours prior to assay. After induction the cells were dissociated with trypsin, centrifuged, and resuspended in bath solution at a cell density of 6×10^6 cells/ml and loaded onto PatchXpress. The bath solution contained 150 mM NaCl, 4 mM KCl, 2 mM CaCl2, 1.2 mM MgCl2, 10 mM HEPES, and 11.1 mM glucose, at pH 7.2. The intracellular solution contained 140 mM K-aspartate, 20 mM NaCl, 5 mM HEPES, 10 mM EGTA, at pH 7.2. Agonist stock solutions were prepared in H2O and diluted in bath solution prior to use. All antagonists were prepared as 10 mM stock solutions in DMSO and diluted in bath solution prior to use. All experiments were performed on cells under the whole-cell patch clamp configuration at room temperature. Up to 16 individual cells could be patch clamped simultaneously on the PatchXpress instrument. A baseline response was established by repeated CTP (100 μM; for 2 sec.) followed by antagonist incubation for 2 min. in the absence of CTP. After antagonist preincubation 100 μM CTP and antagonist were co-administered to determine the inhibitory effect of the antagonist. These steps were then repeated on the same cell with a range of concentrations of the antagonist. A maximum of five concentrations of antagonist were tested on any individual cell. The control P2X3 current amplitude (IP2X3-(control)) was taken as an average of the peak current amplitude from the last two agonist additions prior to incubation with an antagonist. The peak P2X3 current amplitude in the presence of an antagonist (IP2X3-(drug)) was used to calculate the inhibitory effect at each concentration of the antagonist according to the following equation:
% inhibition of P2X3=100*(IP2X3-(control)−IP2X3-(drug))/IP2X3-(control)
Each concentration of an antagonist was tested on at least three independent cells. […]

rhesus P2X3 receptor [2] = target: T1, rhesus P2X3 receptor; experiment: Intracellular calcium measurement (FLIPR, Fluo-3) to assess antagonist affinity; format: cell-based; settings: for IC50: FLIPR, Flp-in T-Rex-293 cells stably expressing rhesus P2X3, antagonist 10 min before agonist αβ-meATP, read-out: IC50, block of αβ-meATP mediated increase in intracellular calcium
Method: as §1
Intracellular Calcium Measurement to Assess Antagonist Affinity—A fluorescent imaging plate reader (FLIPR; Molecular Devices) was used to monitor intracellular calcium levels using the calcium-chelating dye Fluo-3 (Molecular Probes). Cells expressing the rhesus P2X3 receptor were plated in the presence of 0.5 to 1 μg/ml doxycycline at a density of 30,000 cells/well in 384-well black-walled plates approximately 20 hours before beginning the assay. Cells were washed with HBSS and dye-loaded in HBSS, 2 mM CaCl2, 0.1% BSA, 0.25 mM probenecid, and 4 μM Fluo-3 for 60 min in the dark at room temperature. Prior to compound additions cells were washed with HBSS. Antagonist affinity was determined by the ability of these compounds to inhibit increases of intracellular calcium elicited by the P2X3 agonist αβ-meATP. Ten minutes prior to adding agonist, the antagonist was added and allowed to incubate at room temperature. Following agonist addition fluorescence data was collected at 5 sec intervals and analyzed based on the increase in peak relative fluorescence units (RFU) compared to the basal fluorescence. Antagonist dose-response data expressed as a response ratio (max RFU/min RFU) were analyzed using GraphPad Prism.

EC50 (rhesus P2X3 receptor [1]; patch-clamp, rhesus P2X3 stable cell line, FIG. 2, read-out: EC50, inward current evoked by agonist) [nM]	IC50 (rhesus P2X3 receptor [1]) [nM]	IC50 (rhesus P2X3 receptor [2]) [nM]	IC50 (rhesus P2X3 receptor [1]; FIG. 3) [nM]	rhesus P2X3 inward current elicited by CTP in the presence of antagonist (rhesus P2X3 receptor [1]; FIG. 3A, 3 μM PPADS, 100 mM CTP (control) as printed)	blockade of αβ-meATP activated Ca2+ influx (rhesus P2X3 receptor [2]; FIG. 1, cells incubated with PPADS for 10 min prior to agonist, FLIPR traces)	Structure (SMILES)
1000	–	–	–	–	–	Nc1ncnc2c1ncn2[C@@H]1O[C@H](COP(=O)(O)CP(=O)(O)OP(=O)(O)O)[C@@H](O)[C@H]1O [αβ-meATP]
–	382	1500	–	–	–	Cc1ccc(C(=O)Nc2ccc(S(=O)(=O)O)c3cc(S(=O)(=O)O)cc(S(=O)(=O)O)c23)cc1NC(=O)c1cccc(NC(=O)Nc2cccc(C(=O)Nc3cc(C(=O)Nc4ccc(S(=O)(=O)O)c5cc(S(=O)(=O)O)cc(S(=O)(=O)O)c45)ccc3C)c2)c1 [suramin]
–	–	2900	2200	diminished	dose-dependent blockade	Cc1nc(N=Nc2ccc(S(=O)(=O)O)cc2S(=O)(=O)O)c(COP(=O)(O)O)c(C=O)c1O [PPADS, pyridoxal-phoshpate-6-azophenyl-2′,4′-disulfonic acid]
